For test [1], the system named is Tc1 cells. Description: Intracellular cytokine staining / flow cytometry of genipin-treated skewed Tc1 cells. Type of test: cell-based, Mouse. Conditions: added to genipin-treated Tc1 cells; FIG. 2R-2S. As for the experimental part: Mouse lymph nodes and spleens were harvested, and naïve CD4 or CD8 T cells isolated via magnetic bead separation (STEMCELL Technologies) and activated in α-CD3 (10 μg/ml) and α-CD28 (1 μg/ml) pre-coated 96-well plates. Skewing conditions were as follows: Th1 cells/Tc1 cells ([…] 10 μ/ml α-IL-4), Th2 cells/Tc2 cells (20 ng/ml IL-4 and 10 μ/ml α-IFN-γ), Th17 cells/Tc17 cells (20 ng/ml IL-6, 1.25 ng/ml […], 20 ng/ml IL-1β, 20 ng/ml IL-23, 10 μg/ml α-IFN-γ and 10 μg/ml α-IL-4), and Treg cells (5 ng/ml TGF-β, 10 μg/ml α-IFN-γ and 10 μg/ml α-IL-4) in the indicated medium. Cells were cultured for 4-5 days followed by treatment with genipin (3.125 μM, 6.25 μM, 12.5 μM) or DMSO for 12-16 hours.
Monoclonal antibodies were purchased from BD Biosciences or eBioscience. For intracellular cytokine staining (ICS), cells were first restimulated by PMA/ionomycin for 5 hours in the presence of GolgiStop (BD Biosciences), followed by surface epitope staining markers before being fixed/permeabilized (BD Cytofix/Cytoperm™) and stained with antibodies targeting intracellular antigens. Cells were finally fixed with 1.5% formaldehyde for 10 minutes at room temperature and analyzed on a FACSVerse flow cytometer (BD Bioscience). Data were analyzed using FlowJo software (Tree Star Inc.).
On the technique in general: Flow cytometry measures light scatter and fluorescence of single cells or particles in a stream.

Test [2] concerns Tc1 cells. Description: Metabolic assays (Seahorse ECAR/OCR, mitochondrial pyruvate and acetyl CoA) in Tc1 cells. In kind it is cell-based, Mouse. The following applies: UK5099 40 μM added to genipin-treated Tc1 cells; FIG. 2G-2L. Here is the method:
The real-time extracellular acidification rate (ECAR) and oxygen consumption rate (OCR) were measured using a Seahorse XF24 analyzer (Seahorse Bioscience), within XF Glycolysis Stress and XF Cell Mito Stress Test kits used to assess glycolysis and oxidative phosphorylation. 5×10^5 cells exposed to the indicated treatments were plated in an XF-24 microplate coated with Cell-Tak (Corning) one day before the assay. ECAR and OCR were measured after metabolic manipulations by the addition of oligomycin, carbonyl cyanide-p-trifluoromethoxy-phenylhydrazone (FCCP), 2-deoxyglucose (2-DG) and rotenone/anti-mycin A (R/A). Calculations were conducted with Agilent Seahorse Wave Software for Agilent Seahorse XF analyzers (Seahorse Bioscience). For isolation of mitochondria, Tc1 cells were frozen and thawed to weaken the membranes and resuspended in Reagent A of a mitochondria isolation kit (ab110170, Abcam), before being homogenized and centrifuged at 1,000×g for 10 minutes at 4° C. Supernatant was saved (SN #1) and the pellet resuspended in Reagent B. After homogenization and centrifugation, supernatant was saved (SN #2). SN #1 and SN #2 were mixed thoroughly and centrifuged at 12,000×g for 15 minutes at 4° C. The pellet was collected in Reagent C supplemented with protease inhibitors and was used for the pyruvate and acetyl COA assays. Briefly, the mitochondrial pyruvate and acetyl CoA levels in the Tc1 cells were assessed using a commercial Pyruvate Assay Kit (ab65342, Abcam) and PicoProbe Acetyl COA Assay Kit (ab87546, Abcam) according to the manufacturer's instructions.

`N#C/C(=C\c1cn(-c2ccccc2)c2ccccc12)C(=O)O` [UK5099]: the “T-bet expression in genipin-treated (UCP2-deprived) Tc1 cells, effect of added inhibitor” value in the test with Tc1 cells [1] is reported as “blocked the positive regulation of T-bet”. The “Genipin-driven Tc1 effects (mitochondrial acetyl CoA, mitochondrial pyruvate, histone H3 acetylation, H3K9 acetylation, OCR, IFN-γ), effect of added inhibitor” value in the test on Tc1 cells [2] is “could be reversed”.
